# Assay results from publication PMC9959048, “Lipidation of Naturally Occurring α-Helical Antimicrobial Peptides as a Promising Strategy for Drug Design” (International Journal of Molecular Sciences, 2023).
# Residues, ends and D or L forms follow the SMILES beside them. *: point of attachment. Octanoyl = CCCCCCCC(=O)*
# Assays:
# C. albicans PCM2566 = format: cell-based, Candida albicans; conditions: PCM2566, 24 h
# Summary of the method: (§1)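 Broth microdilution MICs per CLSI guidelines: bacteria in Mueller–Hinton broth, 24 h at 37 °C; yeasts in MOPS-buffered RPMI-1640 with 2% glucose, 24 h at 35 °C. Growth read by absorbance at 600 nm, % inhibition versus compound-free inoculated wells; triplicate.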
# [1] = Dynamic light scattering of lipopeptide assemblies; format: physicochemical; conditions: DLS, sonicated 10 min, incubated 1 h, 90° side scatter
# Description: The hydrodynamic diameters of the lipopeptide nanoaggregates were examined by the Litesizer 500 (Anton-Paar GmbH, Graz, Austria) at 25 °C. The measurements were carried out at various lipopeptide concentrations ranging from 0.5 to 2 mM and from 0.25 to 2 mM, in water and PBS, respectively. Two-fold serial dilutions were used to obtain the sequential concentrations. Each sample was sonicated for 10 min followed by incubation for 1 h at 25 °C and transferred to the polystyrene cuvette. The detector was positioned at a side scatter position (90°). The analysis of the obtained results and report generation was performed with KalliopeTM software (Anton-Paar GmbH, Graz, Austria).
# POPG liposomes = assay: CD, α-helix content in POPG liposomes; format: physicochemical; conditions: 25 °C, peptide 0.15 mg/mL, 1.3 mM POPG, from ellipticity at 222 nm
# Description: (§2) Large unilamellar vesicles (LUV) were obtained by extrusion of MLV liposomes through polycarbonate membrane filters with a pore diameter of 100 nm (Whatman International Ltd., Kent, UK) using a mini-extruder (Avanti Polar Lipids, Inc., Alabaster, AL, USA).
# (§3) CD experiments were carried out at 25 °C using a Jasco J-815 spectropolarimeter in the wavelength range 185–260 nm. The concentration of the lipopeptides was 0.15 mg/mL. The CD spectra were recorded in water, PBS (pH 7.4), 1.3 mM POPC and 1.3 mM POPG. The results are plotted as the mean molar ellipticity per one amino acid residue (MRME, deg cm^2 dmol^−1) as a function of the wavelength (nm). Additionally, we performed a conformational analysis of the selected compounds in the presence of S. aureus cells. […] The mixtures were then incubated for 2 h before recording the CD spectra.
# (§4) The percentage of the α-helical structure was calculated based on the mean molar ellipticity at 222 nm using the formula: fH=θ222−3000/−36000−3000·100% where θ222 corresponds to the value of the mean molar ellipticity at a wavelength of 222 nm.
# C. glabrata CCM8270 = format: cell-based, Candida glabrata; conditions: CCM8270, 24 h
# Summary of the method: as §1
# E. coli PCM2057 = format: cell-based, Escherichia coli; conditions: PCM2057, 24 h
# Summary of the method: as §1
# S. epidermidis PCM2118 = format: cell-based, Staphylococcus epidermidis; conditions: PCM2118, 24 h
# Summary of the method: as §1
# S. epidermidis PCM521 = format: cell-based, Staphylococcus epidermidis; conditions: PCM521, 24 h
# Summary of the method: as §1
# S. aureus cells = assay: CD, α-helix content in the presence of S. aureus cells; format: physicochemical, Staphylococcus aureus; conditions: for α-Helix percentage, Staphylococcus aureus: peptide 0.15 mg/mL, phosphate buffer 10 mM pH 7.0, 2 h incubation
# Description: as §3, §4
# C. parapsilosis CCM 8260 = format: cell-based, Candida parapsilosis; conditions: CCM 8260, 24 h
# Summary of the method: as §1
# S. aureus PCM2054 = format: cell-based, Staphylococcus aureus; conditions: PCM2054, 24 h
# Summary of the method: as §1
# S. aureus PCM1650 = format: cell-based, Staphylococcus aureus; conditions: PCM1650, 24 h
# Summary of the method: as §1
# [2] = test system: human breast cancer cells (MCF-7 line, ATCC); assay: MTT cytotoxicity assay; format: cell-based; conditions: IC50 against HaCaT divided by IC50 for MCF-7
# Description: (§5) The prepared plates were further incubated for 48 h. […] The control cell viability was assumed to be 100%. Three independent experiments were carried out in three repetitions.
# [3] = test system: human prostate cancer cells (PC3 line, ATCC); assay: MTT cytotoxicity assay; format: cell-based; conditions: IC50 against HaCaT divided by IC50 for PC3
# Description: as §5
# POPC liposomes = assay: CD, α-helix content in POPC liposomes; format: physicochemical; conditions: 25 °C, peptide 0.15 mg/mL, 1.3 mM POPC
# Description: as §2, §3, §4
compound,measurement,setting,value
CCCCCCCC(=O)N[C@H](C(=O)N[C@@H](CCCCN)C(=O)N[C@@H](CCCCN)C(=O)N[C@H](C(=O)N[C@@H](CC(C)C)C(=O)N[C@@H](CO)C(=O)N[C@@H](CCCCN)C(=O)N[C@H](C(=O)N[C@@H](CCCCN)C(=O)N[C@@H](CCCCN)C(=O)N[C@@H](CC(C)C)C(=O)N[C@@H](CC(C)C)C(=O)N[C@@H](CCCCN)C(N)=O)[C@@H](C)CC)[C@@H](C)CC)[C@@H](C)CC [C8-LK6] (Octanoyl-IKKILSKIKKLLK-NH2),"MIC, C. albicans PCM2566",C. albicans PCM2566,12.5 µg/mL
same,"hydrodynamic diameter, peak of highest scattering intensity","[1]; 0.25 mM in PBS pH 7.4, 25 °C",2596 ± 512 nm
same,"hydrodynamic diameter, peak of highest scattering intensity","[1]; 0.5 mM salt-free aqueous solution, 25 °C",327 ± 102 nm
same,hydrodynamic diameter,"[1]; 2 mM in PBS pH 7.4, 25 °C",3047 ± 750 nm
same,"α-Helix percentage, POPG",POPG liposomes,24%
same,"MIC, C. glabrata CCM8270",C. glabrata CCM8270,25 µg/mL
same,"MIC, E. coli PCM2057",E. coli PCM2057,>50 µg/mL
same,"MIC, S. epidermidis PCM2118",S. epidermidis PCM2118,6.25 µg/mL
same,"MIC, S. epidermidis PCM521",S. epidermidis PCM521,6.25 µg/mL
same,"θ222/θ208, Staphylococcus aureus",S. aureus cells; OD0.1 bacterial suspension,1.26
same,"α-Helix percentage, Staphylococcus aureus",S. aureus cells; OD0.1 bacterial suspension,22%
same,"θ222/θ208, Staphylococcus aureus",S. aureus cells; OD0.2 bacterial suspension,0.89
same,"α-Helix percentage, Staphylococcus aureus",S. aureus cells; OD0.2 bacterial suspension,17%
same,"θ222/θ208, Staphylococcus aureus",S. aureus cells; OD0.5 bacterial suspension,0.88
same,"α-Helix percentage, Staphylococcus aureus",S. aureus cells; OD0.5 bacterial suspension,18%
same,α-helical structure in the presence of bacterial cells,"S. aureus cells; S. aureus, various bacterial cell counts of the inoculum",17–22%
same,"MIC, C. parapsilosis CCM 8260",C. parapsilosis CCM 8260,6.25 µg/mL
same,"MIC, S. aureus PCM2054",S. aureus PCM2054,12.5 µg/mL
same,"MIC, S. aureus PCM1650",S. aureus PCM1650,12.5 µg/mL
same,SI MCF-7,[2],3.44
same,SI PC3,[3],1.50
same,"θ222/θ208, POPC",POPC liposomes,0.82
same,"α-Helix percentage, POPC",POPC liposomes; from ellipticity at 222 nm,46%
